Data from ChEMBL document CHEMBL3856270, “Structure-activity relationship of cyclic pentapeptide malformins as fibrinolysis enhancers” (Bioorg Med Chem Lett, 2016).
pIC50: −log10 of the molar value. Active and inactive are the calls of the source. The rule behind the calls is not given here.

How the values were obtained:
[1] = Cytotoxicity against human U937 cells assessed as reduction in cell viability after 24 hrs by MTT assay; assay type: toxicity, cell-based, U-937; settings: for IC50 at 24 h: human, U937 cells
U-937 [2] = assay: Pro-fibrinolytic activity in human U937 cells supplemented with human platelet-poor plasma assessed as [125I]-fibrin degradation after 3 hrs by gamma counting method; assay type: functional, cell-based
U-937 [3] = assay: Pro-fibrinolytic activity in human U937 cells supplemented with human platelet-poor plasma assessed as [125I]-fibrin degradation at >20 uM after 3 hrs by gamma counting method; assay type: functional, cell-based
U-937 [4] = assay: Pro-fibrinolytic activity in human U937 cells supplemented with human platelet-poor plasma assessed as [125I]-fibrin degradation up to 5 uM after 3 hrs by gamma counting method; assay type: functional, cell-based

## CC(C)C[C@H]1NC(=O)[C@H](C(C)C)NC(=O)[C@H]2CSSC[C@@H](NC(=O)[C@H](CCCCN)NC1=O)C(=O)N2
[1]
  IC50 at 24 h: > 5000 nM

## CC[C@H](C)[C@@H]1NC(=O)[C@@H](CC(C)C)NC(=O)[C@H](CCCCN)NC(=O)[C@H]2CSSC[C@@H](NC1=O)C(=O)N2
[1]
  IC50 at 24 h: > 5000 nM

## CC[C@H](C)[C@@H]1NC(=O)[C@@H](CC(C)C)NC(=O)[C@H](C(C)C)NC(=O)[C@H]2CSSC[C@@H](NC1=O)C(=O)N2 (stereo in doubt; form 1) [listing 1 of 2 here]
U-937 [2]
  Activity: Dose-dependent effect

## CC[C@H](C)[C@@H]1NC(=O)[C@@H](CC(C)C)NC(=O)[C@H](C(C)C)NC(=O)[C@@H](CS)NC(=O)[C@@H](CS)NC1=O
U-937 [3]
  Activity: Active
[1]
  IC50 at 24 h: > 5000 nM

## CC[C@H](C)[C@@H]1NC(=O)[C@@H](CC(C)C)NC(=O)[C@H](C)NC(=O)[C@H]2CSSC[C@@H](NC1=O)C(=O)N2
[1]
  IC50 at 24 h: 1400 nM

## CC[C@H](C)[C@H](N)C(=O)N[C@@H]1CSSC[C@H](C(=O)N[C@H](C(=O)N[C@H](CC(C)C)C(=O)O)C(C)C)NC1=O
[1]
  IC50 at 24 h: > 5000 nM

## CC(C)C[C@H]1NC(=O)[C@H](C(C)C)NC(=O)[C@H]2CSSC[C@@H](NC(=O)[C@H](C)NC1=O)C(=O)N2
U-937 [4]
  Activity: Active
[1]
  IC50 at 24 h: 2800 nM

## CC[C@H](C)[C@@H]1NC(=O)[C@@H](Cc2ccccc2)NC(=O)[C@H](C(C)C)NC(=O)[C@H]2CSSC[C@@H](NC1=O)C(=O)N2
U-937 [4]
  Activity: Active
[1]
  IC50 at 24 h: 1300 nM

## CC[C@H](C)[C@@H]1NC(=O)[C@@H](CC(C)C)NC(=O)[C@H](Cc2ccccc2)NC(=O)[C@H]2CSSC[C@@H](NC1=O)C(=O)N2
U-937 [4]
  Activity: Active
[1]
  IC50 at 24 h: < 100 nM

## CC[C@H](C)[C@@H]1NC(=O)[C@@H](CCCCN)NC(=O)[C@H](C(C)C)NC(=O)[C@H]2CSSC[C@@H](NC1=O)C(=O)N2
[1]
  IC50 at 24 h: > 5000 nM

## CC(C)C[C@H]1NC(=O)[C@H](C(C)C)NC(=O)[C@H]2CSSC[C@@H](NC(=O)[C@H](Cc3ccccc3)NC1=O)C(=O)N2
U-937 [4]
  Activity: Active
[1]
  IC50 at 24 h: < 100 nM

## CC[C@H](C)[C@@H]1NC(=O)[C@@H](CC(C)C)NC(=O)[C@H](C(C)C)NC(=O)[C@H]2CSSC[C@@H](NC1=O)C(=O)N2 (stereo in doubt; form 1) [listing 2 of 2 here]
[1]; u-937
  pIC50: 6.10

## CC[C@H](C)[C@@H]1NC(=O)[C@@H](CC(C)C)NC(=O)[C@H](C(C)C)NC(=O)[C@H]2CSSC[C@@H](NC1=O)C(=O)N2 (stereo in doubt; form 2) [listing 1 of 2 here]
[1]
  IC50 at 24 h: 760 nM

## CC[C@H](C)[C@@H]1NC(=O)[C@@H](CC(C)C)NC(=O)[C@H](C(C)C)NC(=O)[C@@H](CSC)NC(=O)[C@@H](CSC)NC1=O
[1]
  IC50 at 24 h: > 5000 nM

## CC(C)C[C@H]1NC(=O)[C@H](C(C)C)NC(=O)[C@H]2CSSC[C@@H](NC(=O)[C@H](CCCCNC(=O)OC(C)(C)C)NC1=O)C(=O)N2
U-937 [4]
  Activity: Active
[1]
  IC50 at 24 h: < 100 nM

## N[C@@H]1CSSC[C@H](C(=O)O)NC1=O
[1]
  IC50 at 24 h: > 5000 nM

## CC[C@H](C)[C@@H]1NC(=O)[C@@H](CC(C)C)NC(=O)[C@H](C(C)C)NC(=O)[C@@H](CSC(c2ccccc2)(c2ccccc2)c2ccccc2)NC(=O)[C@@H](CSC(c2ccccc2)(c2ccccc2)c2ccccc2)NC1=O
[1]
  IC50 at 24 h: > 5000 nM

## CC[C@H](C)[C@@H]1NC(=O)[C@@H](CC(C)C)NC(=O)[C@H](CCCCNC(=O)OC(C)(C)C)NC(=O)[C@H]2CSSC[C@@H](NC1=O)C(=O)N2
U-937 [4]
  Activity: Active
[1]
  IC50 at 24 h: < 100 nM

## CC[C@H](C)[C@@H]1NC(=O)[C@@H](C)NC(=O)[C@H](C(C)C)NC(=O)[C@H]2CSSC[C@@H](NC1=O)C(=O)N2
U-937 [4]
  Activity: Active
[1]
  IC50 at 24 h: 2200 nM

## CC[C@H](C)[C@@H]1NC(=O)[C@@H](CCCCNC(=O)OC(C)(C)C)NC(=O)[C@H](C(C)C)NC(=O)[C@H]2CSSC[C@@H](NC1=O)C(=O)N2
U-937 [4]
  Activity: Active
[1]
  IC50 at 24 h: 200 nM

## CC[C@H](C)[C@@H]1NC(=O)[C@@H](CC(C)C)NC(=O)[C@H](C(C)C)NC(=O)[C@H]2CSSC[C@@H](NC1=O)C(=O)N2 (stereo in doubt; form 2) [listing 2 of 2 here]
U-937 [2]
  Activity: Dose-dependent effect
